Measured values from ChEMBL document CHEMBL1124230, “Synthesis and anti-HIV activity of different sugar-modified pyrimidine and purine nucleosides” (1988).

What was measured:
[1] = tested on: MT4; assay: Cytotoxic dose required to reduce the viability of normal uninfected MT-4 cells.; format: functional; details: Homo sapiens, read-out: CD50 (the source's name)
[2] = tested on: MT4; assay: Ratio of CD50 to ED50 rvaluated for inhibition of HIV replication in MT-4 cells; format: functional
[3] = tested on: Human immunodeficiency virus 1; assay: Dose required to inhibit cytopathic effect of human immunodeficiency virus replication in MT-4 cells.; format: functional; details: Human immunodeficiency virus 1, MT4; read-out: ED50 (the source's name)
[4] = Ratio of CD50 to ED50 evaluated for inhibition of HIV replication in MT-4 cells; format: functional, MT4

Row | Compound | CC50 [1] [µM] | Selectivity index [2] | EC50 [3] [µM] | Selectivity index [4]
1 | Cc1cn([C@H]2C[C@H](N=[N+]=[N-])[C@@H](CO)O2)c(=O)[nH]c1=O [ZIDOVUDINE] | 20 | 5000 | 0.004 | –
2 | Nc1ncnc2c1ncn2[C@@H]1O[C@H](CO)C[C@@H]1O | > 500 | – | > 500 | –
3 | Nc1nc(N)c2ncn(C3CC(F)C(CO)O3)c2n1 (stereo not given) | 360 | 80 | 4.5 | –
4 | Nc1ncnc2c1ncn2[C@@H]1O[C@H](CO)C[C@H]1O [CORDYCEPIN] | 45 | <0.5 | > 50 | –
5 | O=c1ccn([C@H]2C[C@H](F)[C@@H](CO)O2)c(=O)[nH]1 | 16 | 400 | 0.04 | –
6 | Nc1ncnc2c1ncn2[C@@H]1O[C@H](CO)[C@@H]2O[C@@H]21 | > 100 | – | > 100 | –
7 | Nc1ncnc2c1ncn2C1OC(CO)CC1Br (stereo not given) | > 500 | – | > 500 | –
8 | Cc1cn([C@H]2C[C@H](F)[C@@H](CO)O2)c(=O)[nH]c1=O [ALOVUDINE] | 0.197 | 197 | 0.001 | –
9 | CC1=CN(C2CC(N=[N+]=[N-])C(CO)O2)CN=C1NO (stereo not given) | 92 | 61 | 1.5 | –
10 | C#CC1C(CO)OC(n2cc(C)c(=O)[nH]c2=O)C1O (stereo not given) | > 500 | – | > 500 | –
11 | CC(=O)SC1CC(n2cc(C)c(=O)[nH]c2=O)OC1CO (stereo not given) | 29 | 1.1 | 27 | –
12 | [N-]=[N+]=N[C@H]1C[C@H](n2ccc(=O)[nH]c2=O)O[C@@H]1CO [NAVURIDINE] | 244 | 677 | 0.36 | –
13 | Nc1ncnc2c1ncn2[C@@H]1O[C@H](CO)[C@H]2O[C@H]21 | > 500 | – | > 500 | –
14 | Cc1ccc(SC2CC(n3cc(C)c(=O)[nH]c3=O)OC2CO)cc1 (stereo not given) | 116 | <1.2 | > 100 | –
15 | Cc1cn([C@H]2C[C@H](OC(=S)Oc3ccccc3)[C@@H](CO)O2)c(=O)[nH]c1=O | > 250 | – | > 250 | –
16 | [N-]=[N+]=N[C@H]1C[C@H](n2ccc(N)nc2=O)O[C@@H]1CO | 34.1 | 11 | 3.1 | –
17 | CNc1ccn(C2CC(N=[N+]=[N-])C(CO)O2)c(=O)n1 (stereo not given) | > 1000 | >1.6 | 605 | –
18 | Cc1cn([C@H]2C[C@H](N=[N+]=[N-])[C@@H](CO)O2)c(=O)nc1N | > 1000 | 555 | 1.8 | –
19 | Nc1nc(O)c2ncn([C@H]3C[C@H](O)[C@@H](CO)O3)c2n1 [DEOXYGUANOSINE] | > 500 | – | 158 | 3.1
20 | Nc1nc(O)c2ncn(C3CC(F)C(CO)O3)c2n1 (stereo not given) | 237 | – | 2.4 | 96
21 | Cc1cn(C2OC(CO)C(C#N)C2O)c(=O)[nH]c1=O (stereo not given) | – | – | > 500 | –
22 | Nc1ncnc2c1ncn2[C@H]1C[C@H](O)[C@@H](CO)O1 [DEOXYADENOSINE] | > 100 | – | > 100 | –
23 | Nc1ncnc2c1ncn2C1OC(CO)CC1Cl (stereo not given) | > 500 | – | > 500 | –
24 | CNc1nc(=O)n(C2CC(N=[N+]=[N-])C(CO)O2)cc1C (stereo not given) | > 1000 | >58 | 17.3 | –
25 | Nc1nc(O)c2ncn(C3C=CC(CO)O3)c2n1 (stereo not given) | 11 | – | > 5 | >2.2
26 | Nc1nc(N)c2ncn([C@H]3C[C@H](O)[C@@H](CO)O3)c2n1 | > 625 | – | > 125 | –
27 | Cc1cn([C@H]2C[C@H](SS[C@H]3C[C@H](n4cc(C)c(O)nc4=O)O[C@@H]3CO)[C@@H](CO)O2)c(=O)nc1O | 34 | 2.1 | 16 | –
